Here are results for 10 compounds from patent US8039513B2, “Cis-1,2-substituted stilbene derivatives and their use in preparation of drugs for treatment and/or prevention of diabetes” (Institute of Radiation Medicine, Academy of Military …, priority 2004, dated 2011).

The structures appear in SMILES notation.

Series [1] has as its system mice with glucose-induced hyperglycemia. The experiment in a line: Hypoglycemic effect of orally administered compounds in mice with glucose-induced hyperglycemia. The note with it: glucose 2 g/10 ml/kg orally 15 min later, fasted mice. The series is classed as in vivo, Kun Ming male mice. The protocol:
In the following biological experiments, the hypoglycemic activity of the above compounds was chiefly observed in hyperglycemic mice. Taking 3,3′,5′-trihydroxy-4′-methoxystilbene-3-O-β-D-glucoside (rhaponticin) as a positive control drug, the hypoglycemic activity of these compounds were preliminarily evaluated.
Kun Ming male mice (certification: Medical Animal No. D01-3023) with body weight of 21-33 g were used in the experiments. After fasting and feeding water for 16 hours, the compounds were administered to the mice. The candidate compounds were formulated with dimethyl sulfoxide (2.5 ml/kg), and administered to the mice intragastrically. After fifteen minutes, glucose (2 g/10 ml/kg) was administered orally. One hour later, one drop of blood was collected by cutting a segment of tail and the blood sugar level was monitored with a blood sugar monitor manufactured by Johnson Company, USA, by using a test paper containing glucose oxidase. For the mice of the control group, dimethyl sulfoxide ([…]) and glucose (2 g/10 ml/kg) were given intragastrically.

[2] abbreviates: Table 1, 400 mg/kg intragastrically, DMSO control 9.50 ± 1.06.
[3] abbreviates: Table 2, 400 mg/kg intragastrically, DMSO control 8.53 ± 0.76.
The mark [4] stands for this setting: Table 3, 400 mg/kg intragastrically, DMSO control 7.80 ± 1.33.

Regarding `COc1cc(/C=C\c2ccccc2)ccc1O` [Example 1, cis-1-phenzyl-2-(3′-methoxy-4′-hydroxy-phenyl)ethene], in series [1] (setting [2]), the “Blood sugar level one hour after administration M ± SD” value came out at 7.62 ± 1.59 mmol/L. The same measure, in the same setting: as for `COc1ccc(/C=C(/C(=O)O)c2ccccc2)cc1OC(C)=O` [Example 2, cis-2-phenyl-3-(3′-acetoxy-4′-methoxy-phenyl)acrylic acid], the figure is 8.20 ± 0.99 mmol/L. Consider `COc1cc(/C=C(/C(=O)O)c2ccccc2)ccc1OC(C)=O` [Example 3, cis-2-phenyl-3-(3′-methoxy-4′-acetoxy-phenyl)acrylic acid], for which the “Blood sugar level one hour after administration M ± SD” value is 7.30 ± 0.68 mmol/L in series [1] (setting [2]) and 7.85 ± 0.16 mmol/L in series [1] (setting [3]). On to `COc1cc(/C=C(/C(=O)O)c2ccccc2)ccc1O` [Example 4, cis-2-phenyl-3-(3′-methoxy-4′-hydroxy-phenyl)acrylic acid], for which, in series [1] (setting [3]), the “Blood sugar level one hour after administration M ± SD” value is reported as 7.30 ± 2.21 mmol/L. The same measure, in the same setting: then `COc1ccc(/C=C(/C(=O)O)c2ccccc2)cc1C(=O)O` [Example 5, cis-2-phenyl-3-(3′-carboxy-4′-methoxy-phenyl)acrylic acid], with 8.50 ± 1.01 mmol/L. `COc1cc(/C=C(/C(=O)NC2CCCCC2)c2ccccc2)ccc1OC(C)=O` [Example 6, cis-2-phenyl-3-(3-methoxy-4′-acetoxy-phenyl)-N-cyclohexyl acrylamide]: the “Blood sugar level one hour after administration M ± SD” value in series [1] (setting [3]) came to 5.46 ± 0.86 mmol/L. As to `COc1cc(C=C(C(=O)NCc2ccco2)c2ccccc2)ccc1OC(C)=O` [Example 7, cis-2-phenyl-3-(3′-methoxy-4′-acetoxy-phenyl)-N-(methylenefuran)acrylamide], the “Blood sugar level one hour after administration M ± SD” value in series [1] (setting [4]) is on record as 6.95 ± 0.61 mmol/L. As for `COc1cc(C=C(C(=O)N[C@H]2CC[C@@H](C)CC2)c2ccccc2)ccc1OC(C)=O` [Example 8, cis-2-phenyl-3-(3′-methoxy-4′-acetoxy-phenyl)-N-(4-methylcyclohexyl)acrylamide], the melting point was 136 to 140 °C. Also, in series [1] (Table 3, 100 mg/kg intragastrically, DMSO control 7.80 ± 1.33), the “Blood sugar level one hour after administration M ± SD” value is 5.61 ± 1.67 mmol/L.

For `COC(=O)/C(=C/c1ccc(OC)c(OC)c1)c1ccccc1` [Example 9, cis-2-phenyl-3-(3′,4′-dimethoxy-phenyl)-methyl acrylate], in series [1] (setting [4]), the “Blood sugar level one hour after administration M ± SD” value is 8.41 ± 0.88 mmol/L. Take `COc1ccc(/C=C/c2cc(O)cc(O[C@@H]3O[C@H](CO)[C@@H](O)[C@H](O)[C@H]3O)c2)cc1O` [rhaponticin, 3,3′,5′-trihydroxy-4′-methoxystilbene-3-O-β-D-glucoside, reference compound]: the “Blood sugar level one hour after administration M ± SD” value in series [1] (setting [2]) is reported as 9.14 ± 1.90 mmol/L; in series [1] (Table 1, 800 mg/kg intragastrically, DMSO control 9.50 ± 1.06) it was 7.02 ± 1.01 mmol/L.

As a reminder, the melting point is the temperature of the solid-liquid transition.
